Test results from BindingDB's records for doi:10.1016/s0960-894x(98)00596-4 (University of Connecticut, 1999).

Tests used:
[1] = Inhibitory activity against alpha-L-fucosidase in bovine kidney; Competitive Inhibition type
[2] = Inhibitory activity against alpha-L-fucosidase in bovine epididymis at PH of 6.5; Competitive Inhibition type; conditions: pH 6.5
[3] = Inhibitory activity against alpha-L-fucosidase in bovine kidney at PH of 6.5; Mixed Inhibition type; conditions: pH 6.5

Row | Ki [1] [µM] | Ki [2] [µM] | Ki [3] [µM] | SMILES
1 | 42 |  |  | O[C@H]1[C@H](O)[C@H](O)O[C@@H](CS)[C@H]1O [(2R,3S,4R,5S,6R)-6-Mercaptomethyl-tetrahydro-pyran-2,3,4,5-tetraol]
2 |  | 5.6 | 4.6 | CC(=O)NCSC1OC(C)C(O)C(O)C1O (stereo not drawn) [N-(3,4,5-Trihydroxy-6-methyl-tetrahydro-pyran-2-ylsulfanylmethyl)-acetamide]
